Results from patent US8350118B2, “Allergic disease model animals” (Keio University, priority 2008, dated 2013).

Test system: Langerhans cells
Assay: corneum-barrier transmission: uptake into Langerhans cells after application to ear skin surface
Type: in vivo, mouse
Settings: 7 weeks of age, 10 mg/mL applied to skin surface inside the ear, ears collected after 24 hours
Excerpt: To confirm that the skin-barrier function is impaired in FLG-gene deficient mice, a method was developed for evaluating skin-barrier function based on the amount of uptake of antigen into Langerhans cells that are antigen-presenting cells in epidermis, to examine the skin-barrier function in FLG^−/− mice and wild-type mice. In a conventional method for evaluating antigen uptake into Langerhans cells by externally applying antigen to the skin, reagents such as FITC that easily pass through the corneum barrier has been used. However, a change in the corneum-barrier transmission due to loss of filaggrin cannot be observed by the methods using reagents that easily pass through the corneum barrier. Thus the present inventors established for the first time a method for evaluating corneum-barrier transmission using sulfo-NHS-LC-biotin which is a cell-membrane impermeable, protein-biotinylating reagent. This method has enabled the observation of a change in corneum-barrier transmission. The structural formula of sulfo-NHS-LC-biotin is shown below. Sulfo-NHS-LC-biotin (#21335; Thermo Scientific) was applied to a FLG^−/− mouse and a wild-type littermate mouse at 7 weeks of age on the skin surface inside the ear, and the uptake into Langerhans cells was observed under a fluorescence microscope. […]

Question: `O=C(CCCCC1SCC2NC(=O)NC21)NCCCCCC(=O)ON1C(=O)CC(S(=O)(=O)[O-])C1=O.[Na+]` (centres unmarked) [biotin, sulfo-NHS-LC-biotin] was tested. Which “biotin uptake into Langerhans cells” value (FLG−/− mouse) did it give?
Answer: biotin (green) taken up was accumulated in Langerhans cell body (red)

Question: And the “biotin uptake into Langerhans cells” value (wild-type littermate mouse)?
Answer: no biotin (green) uptake into Langerhans cells (red) was observed
